In PubChem BioAssay (NCI):
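GI50 is the concentration that inhibits growth by half. TGI is the concentration that stops growth completely.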

Key:
Assay in all cases: DTP human tumour cell line panel, 384-well format
K-562 leukemia = tested on: K-562 leukemia
KM12 colon = tested on: KM12 colon
A498 renal = tested on: A498 renal
NCI-H226 lung = tested on: NCI-H226 lung
SNB-75 CNS = tested on: SNB-75 CNS
IGROV1 ovarian = tested on: IGROV1 ovarian
MOLT-4 leukemia = tested on: MOLT-4 leukemia
MDA-MB-435 melanoma = tested on: MDA-MB-435 melanoma
UACC-62 melanoma = tested on: UACC-62 melanoma
SN12C renal = tested on: SN12C renal
MDA-MB-468 breast = tested on: MDA-MB-468 breast
SF-268 CNS = tested on: SF-268 CNS
HL-60(TB) leukemia = tested on: HL-60(TB) leukemia
SK-MEL-2 melanoma = tested on: SK-MEL-2 melanoma
SK-MEL-5 melanoma = tested on: SK-MEL-5 melanoma
OVCAR-3 ovarian = tested on: OVCAR-3 ovarian
SW-620 colon = tested on: SW-620 colon
SK-OV-3 ovarian = tested on: SK-OV-3 ovarian
EKVX NSCLC = tested on: EKVX NSCLC
HCC-2998 colon = tested on: HCC-2998 colon
LOX IMVI melanoma = tested on: LOX IMVI melanoma
CCRF-CEM leukemia = tested on: CCRF-CEM leukemia
HOP-92 NSCLC = tested on: HOP-92 NSCLC
CAKI-1 renal = tested on: CAKI-1 renal
PC-3 prostate = tested on: PC-3 prostate
UACC-257 melanoma = tested on: UACC-257 melanoma
M14 melanoma = tested on: M14 melanoma
MCF7 breast = tested on: MCF7 breast
DU-145 prostate = tested on: DU-145 prostate
SR leukemia = tested on: SR leukemia
HT29 colon = tested on: HT29 colon
NCI/ADR-RES ovarian = tested on: NCI/ADR-RES ovarian
UO-31 renal = tested on: UO-31 renal
U251 glioblastoma = tested on: U251 glioblastoma
BT-549 breast = tested on: BT-549 breast
MDA-MB-231 breast = tested on: MDA-MB-231 breast
SF-539 CNS = tested on: SF-539 CNS
ACHN renal = tested on: ACHN renal
SF-295 CNS = tested on: SF-295 CNS
SK-MEL-28 melanoma = tested on: SK-MEL-28 melanoma
RXF 393 renal = tested on: RXF 393 renal
OVCAR-5 ovarian = tested on: OVCAR-5 ovarian
786-0 renal = tested on: 786-0 renal
SNB-19 CNS = tested on: SNB-19 CNS
HS 578T breast = tested on: HS 578T breast
NCI-H522 lung = tested on: NCI-H522 lung
HCT-15 colon = tested on: HCT-15 colon
NCI-H460 NSCLC = tested on: NCI-H460 NSCLC
NCI-H322M lung = tested on: NCI-H322M lung
HOP-62 NSCLC = tested on: HOP-62 NSCLC
T-47D breast = tested on: T-47D breast
MALME-3M melanoma = tested on: MALME-3M melanoma
RPMI-8226 leukemia = tested on: RPMI-8226 leukemia
COLO 205 colon = tested on: COLO 205 colon
OVCAR-8 ovarian = tested on: OVCAR-8 ovarian
HCT-116 colon = tested on: HCT-116 colon
NCI-H23 lung = tested on: NCI-H23 lung
OVCAR-4 ovarian = tested on: OVCAR-4 ovarian
TK-10 renal = tested on: TK-10 renal
A549 NSCLC = tested on: A549 NSCLC

SMILES: COc1cc2nc(C)nc(N[C@H](C)c3cc(N)cc(C(F)(F)F)c3)c2cc1O[C@H]1CCOC1
- GI50 (K-562 leukemia): 0.0364 µM
- TGI (K-562 leukemia): 12.5 µM
- GI50 (KM12 colon): 0.98 µM
- TGI (KM12 colon): 17.1 µM
- GI50 (A498 renal): 8.87 µM
- TGI (A498 renal): 21.3 µM
- GI50 (NCI-H226 lung): 3.24 µM
- TGI (NCI-H226 lung): 19.1 µM
- GI50 (SNB-75 CNS): 6.26 µM
- TGI (SNB-75 CNS): 20 µM
- GI50 (IGROV1 ovarian): 8.69 µM
- TGI (IGROV1 ovarian): 21.5 µM
- GI50 (MOLT-4 leukemia): 4.45 µM
- TGI (MOLT-4 leukemia): 17.4 µM
- GI50 (MDA-MB-435 melanoma): 14.5 µM
- TGI (MDA-MB-435 melanoma): 27.6 µM
- GI50 (UACC-62 melanoma): 13.4 µM
- TGI (UACC-62 melanoma): 26.2 µM
- GI50 (SN12C renal): 2.86 µM
- TGI (SN12C renal): 18.2 µM
- GI50 (MDA-MB-468 breast): 1.35 µM
- TGI (MDA-MB-468 breast): 11.3 µM
- GI50 (SF-268 CNS): 13.5 µM
- TGI (SF-268 CNS): 26.3 µM
- GI50 (HL-60(TB) leukemia): 3.91 µM
- TGI (HL-60(TB) leukemia): 14.4 µM
- GI50 (SK-MEL-2 melanoma): 11.1 µM
- TGI (SK-MEL-2 melanoma): 23.1 µM
- GI50 (SK-MEL-5 melanoma): 3.15 µM
- TGI (SK-MEL-5 melanoma): 17.1 µM
- GI50 (OVCAR-3 ovarian): 6.28 µM
- TGI (OVCAR-3 ovarian): 20.1 µM
- GI50 (SW-620 colon): 14.1 µM
- TGI (SW-620 colon): 27.2 µM
- GI50 (SK-OV-3 ovarian): 12.5 µM
- TGI (SK-OV-3 ovarian): 25.1 µM
- GI50 (EKVX NSCLC): 2.73 µM
- TGI (EKVX NSCLC): 16.2 µM
- GI50 (HCC-2998 colon): 3.6 µM
- TGI (HCC-2998 colon): 15.9 µM
- GI50 (LOX IMVI melanoma): 13.4 µM
- TGI (LOX IMVI melanoma): 26.3 µM
- GI50 (CCRF-CEM leukemia): 9.35 µM
- TGI (CCRF-CEM leukemia): 21.3 µM
- GI50 (HOP-92 NSCLC): 0.0895 µM
- TGI (HOP-92 NSCLC): 5.19 µM
- GI50 (CAKI-1 renal): 1.97 µM
- TGI (CAKI-1 renal): 17 µM
- GI50 (PC-3 prostate): 11 µM
- TGI (PC-3 prostate): 23.1 µM
- GI50 (UACC-257 melanoma): 4.86 µM
- TGI (UACC-257 melanoma): 16.6 µM
- GI50 (M14 melanoma): 11.7 µM
- TGI (M14 melanoma): 23.9 µM
- GI50 (MCF7 breast): 11.3 µM
- TGI (MCF7 breast): 23.5 µM
- GI50 (DU-145 prostate): 14.6 µM
- TGI (DU-145 prostate): 27.9 µM
- GI50 (SR leukemia): 1.54 µM
- TGI (SR leukemia): 8.64 µM
- GI50 (HT29 colon): 4.69 µM
- TGI (HT29 colon): 16.2 µM
- GI50 (NCI/ADR-RES ovarian): 12.5 µM
- TGI (NCI/ADR-RES ovarian): 25.4 µM
- GI50 (UO-31 renal): 12.2 µM
- TGI (UO-31 renal): 24.7 µM
- GI50 (U251 glioblastoma): 10.9 µM
- TGI (U251 glioblastoma): 22.8 µM
- GI50 (BT-549 breast): 8.77 µM
- TGI (BT-549 breast): 21.2 µM
- GI50 (MDA-MB-231 breast): 13.5 µM
- TGI (MDA-MB-231 breast): 26.6 µM
- GI50 (SF-539 CNS): 12.7 µM
- TGI (SF-539 CNS): 25.3 µM
- GI50 (ACHN renal): 13.8 µM
- TGI (ACHN renal): 26.7 µM
- GI50 (SF-295 CNS): 12.8 µM
- TGI (SF-295 CNS): 25.4 µM
- GI50 (SK-MEL-28 melanoma): 12.6 µM
- TGI (SK-MEL-28 melanoma): 25.2 µM
- GI50 (RXF 393 renal): 2.43 µM
- TGI (RXF 393 renal): 12.1 µM
- GI50 (OVCAR-5 ovarian): 11 µM
- TGI (OVCAR-5 ovarian): 23.1 µM
- GI50 ([…]-0 renal): 11.8 µM
- TGI (786-0 renal): 24.2 µM
- GI50 (SNB-19 CNS): 12.5 µM
- TGI (SNB-19 CNS): 25.1 µM
- GI50 (HS 578T breast): 2.1 µM
- TGI (HS 578T breast): 15.9 µM
- GI50 (NCI-H522 lung): 2.34 µM
- TGI (NCI-H522 lung): 19.4 µM
- GI50 (HCT-15 colon): 11.6 µM
- TGI (HCT-15 colon): 23.9 µM
- GI50 (NCI-H460 NSCLC): 12 µM
- TGI (NCI-H460 NSCLC): 24.6 µM
- GI50 (NCI-H322M lung): 11.1 µM
- TGI (NCI-H322M lung): 23.1 µM
- GI50 (HOP-62 NSCLC): 6.98 µM
- TGI (HOP-62 NSCLC): 20.1 µM
- GI50 (T-47D breast): 10.2 µM
- TGI (T-47D breast): 21.9 µM
- GI50 (MALME-3M melanoma): 8.63 µM
- TGI (MALME-3M melanoma): 21.1 µM
- GI50 (RPMI-8226 leukemia): 2.13 µM
- TGI (RPMI-8226 leukemia): 13.2 µM
- GI50 (COLO 205 colon): 14 µM
- TGI (COLO 205 colon): 27.1 µM
- GI50 (OVCAR-8 ovarian): 12.7 µM
- TGI (OVCAR-8 ovarian): 25.3 µM
- GI50 (HCT-116 colon): 10.5 µM
- TGI (HCT-116 colon): 22.4 µM
- GI50 (NCI-H23 lung): 3.42 µM
- TGI (NCI-H23 lung): 17.7 µM
- GI50 (OVCAR-4 ovarian): 8.7 µM
- TGI (OVCAR-4 ovarian): 21.4 µM
- GI50 (TK-10 renal): 10.9 µM
- TGI (TK-10 renal): 22.9 µM
- GI50 (A549 NSCLC): 14.5 µM
- TGI (A549 NSCLC): 27.8 µM
